Assay results: paper PMC7290285 (Viruses, 2020)
pIC50: −log10 of the molar value. Where a name gives a salt, the structure may show the parent alone. Read-outs that look alike come from different tables or passages of the source.

Columns and labels:
[1] = system: lentiviral particles with AZT-resistant RT mutant (eGFP) in HEK293T-mCat1 cells; assay: microbe, parasite or virus in culture; assay type: cell-based, HIV-1
[2] = system: lentiviral particles with wild-type HIV-1 reverse transcriptase (mCherry) in HEK293T-mCat1 cells; assay: microbe, parasite or virus in culture; assay type: cell-based
[3] = in vitro; conditions: human
[4] = system: luciferase lentiviral particles (wild-type RT) in HEK293T-mCat1 cells; assay: Luciferase-based screening using HEK293T-mCat1 cells; conditions: for Identified as active in the luciferase assay / Relative inhibition [%] of luciferase (wild-type RT): 1 µM; for Identified as active in the luciferase assay: second LOPAC screen; for Relative inhibition [%] of luciferase (wild-type RT): normalized to 1 µM AZT = 100% and DMSO = 0%, HEK293T-mCat1, 3 days
[5] = system: HEK293T-mCat1 cells; conditions: 1 µM
[6] = system: ecotropic pseudo-typed lentiviral particles (luciferase) in PM1-mCat1 cells; assay: Luciferase-based viral integration assay using PM1-mCat1 cells; conditions: for IC50: Human immunodeficiency virus 1, read-out: IC50 (in µM), viral integration assay
[7] = system: PM1-mCat1 cells; assay: Cytotoxicity determination (CellTiter-Glo) in PM1-mCat1 cell line; assay type: cell-based, human; conditions: PM1-mCat1 viability relative to DMSO
[8] = Human immunodeficiency virus 1, 48 h; read-out: Relative inhibition [%] of eGFP (mutant RT)
[9] = Human immunodeficiency virus 1, 48 h; read-out: Relative inhibition [%] of mCherry (wild-type RT)

Oc1ccc(C2CNCCc3c2cc(O)c(O)c3Cl)cc1 (centres unmarked) [Fenoldopam bromide]
inhibition at 1 µM ([1]; Human immunodeficiency virus 1, 48 h, read-out: Relative inhibition [%] of eGFP (mutant RT)): 65%
inhibition at 1 µM ([2]; Human immunodeficiency virus 1, 48 h, read-out: Relative inhibition [%] of mCherry (wild-type RT)): 61%
viability at 1 µM [3]: 73%
inhibition at 1 µM ([4]; Human immunodeficiency virus 1, 72 h, read-out: Relative inhibition [%] of luciferase (wild-type RT)): -40%

Nc1nccc2c1ncn2[C@@H]1O[C@H](CO)[C@@H](O)[C@H]1O [3-Deazaadenosine]
Relative inhibition [%] of eGFP (mutant RT) ([1]; 1 µM): -34%
Relative inhibition [%] of mCherry (wild-type RT) ([2]; 1 µM): -25%
Viability [%] [5]: 85%

Cl.Nc1ccn([C@@H]2O[C@H](CO)[C@@H](O)[C@@H]2O)c(=O)n1 [Cytosine-1-beta-D-arabino-furanoside hydrochloride]
Relative inhibition [%] of eGFP (mutant RT) ([1]; 1 µM): 95%
Relative inhibition [%] of mCherry (wild-type RT) ([2]; 1 µM): 98%
Viability [%] [5]: 38%
Identified as active in the luciferase assay [4]: again identified
Relative inhibition [%] of luciferase (wild-type RT) [4]: 211%

Cc1c(O)cccc1C(=O)N[C@@H](CSc1ccccc1)[C@H](O)CN1C[C@H]2CCCC[C@H]2C[C@H]1C(=O)NC(C)(C)C [Nelfinavir mesylate hydrate]
inhibition at 1 µM [1, 8]: 49%
inhibition at 1 µM [2, 9]: 90%
viability at 1 µM [3]: 26%

Nc1nc2c(ncn2COCCO)c(=O)[nH]1 [Acyclovir]
inhibition at 1 µM [1, 8]: -33%
inhibition at 1 µM [2, 9]: 41%
viability at 1 µM [3]: 88%

Nc1ccn([C@H]2CC[C@@H](CO)O2)c(=O)n1 [2',3'-Dideoxycytidine]
inhibition at 1 µM [1, 8]: 99%
inhibition at 1 µM [2, 9]: 100%
viability at 1 µM [3]: 7%

NC(=O)c1ncn([C@@H]2O[C@H](CO)[C@@H](O)[C@H]2O)n1 [Ribavirin]
inhibition at 1 µM [1, 8]: -73%
inhibition at 1 µM [2, 9]: -21%
viability at 1 µM [3]: 81%

O=S(=O)(c1ccc(Sc2ncnc3scc(-c4ccc(F)cc4)c23)nc1)N1CCOCC1 [T5643556, FC1=CC=C(C=C1)C1=CSC2=C1C(SC1=NC=C(C=C1)S(=O)(=O)N1CCOCC1)=NC=N2]
IC50 [6]: 6.19 µM

c1ccc(CCNc2nc(CN3CCOCC3)nc3scc(-c4cccs4)c23)nc1 [T6312425, C(CC1=NC=CC=C1)NC1=C2C(SC=C2C2=CC=CS2)=NC(CN2CCOCC2)=N1]
IC50 [6]: > 10 µM

CC(C)CCn1cnc2c1c(=O)n(CC(=O)NC(C)C)c(=O)n2Cc1ccccc1 [T5488769, CC(C)CCN1C=NC2=C1C(=O)N(CC(=O)NC(C)C)C(=O)N2CC1=CC=CC=C1]
IC50 [6]: 9.06 µM

C=CCNC(=O)CN1CCN(c2nc3ccccc3s2)CC1 [T6471356, C=CCNC(=O)CN1CCN(CC1)C1=NC2=C(S1)C=CC=C2]
IC50 [6]: 2.37 µM

Cc1ccc(S(=O)(=O)N2CCOCC2)cc1C(=O)Nc1ccccc1N1CCCC1 [T5530682, CC1=C(C=C(C=C1)S(=O)(=O)N1CCOCC1)C(=O)NC1=C(C=CC=C1)N1CCCC1]
IC50 [6]: 8.26 µM

c1coc(-c2noc(CNc3ccccc3-n3cccn3)n2)c1 [T6671011, C(NC1=C(C=CC=C1)N1C=CC=N1)C1=NC(=NO1)C1=CC=CO1]
IC50 [6]: 4 µM

O=C(COc1ccccc1-c1ccccc1)NCc1ccccc1CN1CCOCC1 [T5781151, O=C(COC1=C(C=CC=C1)C1=CC=CC=C1)NCC1=C(CN2CCOCC2)C=CC=C1]
IC50 [6]: 6.94 µM

COc1ccc(S(=O)(=O)N(Cc2cccc(C(F)(F)F)c2)c2ccccc2OC)cc1 [T5407044, COC1=CC=C(C=C1)S(=O)(=O)N(CC1=CC(=CC=C1)C(F)(F)F)C1=C(OC)C=CC=C1]
IC50 [6]: 4.11 µM

NC12CC3CC(CC(C3)C1)C2 [Amantadine hydrochloride]
inhibition at 1 µM [1, 8]: -29%
inhibition at 1 µM [2, 9]: 6%
viability at 1 µM [3]: 67%

O=C(CSc1nnc(-c2cccc(Cl)c2)n1-c1ccccc1C(F)(F)F)NCc1ccco1 [T5258076, FC(F)(F)C1=C(C=CC=C1)N1C(SCC(=O)NCC2=CC=CO2)=NN=C1C1=CC(Cl)=CC=C1]
IC50 [6]: 4.76 µM

Cc1ccccc1-n1nnnc1SCc1nnc(-c2cccs2)o1 [T5805638, CC1=C(C=CC=C1)N1N=NN=C1SCC1=NN=C(O1)C1=CC=CS1]
IC50 [6]: 1.45 µM

COC(=O)c1ccccc1NS(=O)(=O)c1c(F)cc(F)cc1Br [T6007055, COC(=O)C1=C(NS(=O)(=O)C2=C(Br)C=C(F)C=C2F)C=CC=C1]
IC50 [6]: 1.35 µM

Cc1cn([C@H]2C[C@H](N=[N+]=[N-])[C@@H](CO)O2)c(=O)[nH]c1=O [3‘-Azido-3‘-deoxythymidine]
Relative inhibition [%] of eGFP (mutant RT) ([1]; 1 µM): 38%
Relative inhibition [%] of mCherry (wild-type RT) ([2]; 1 µM): 73%
Viability [%] [5]: 89%
Identified as active in the luciferase assay [4]: again identified
Relative inhibition [%] of luciferase (wild-type RT) [4]: 85%
Reduction of the luciferase signal ([4]; AZT control at 1 µM, HEK293T-mCat1): 50%

CN(C1CCCCCC1)S(=O)(=O)c1cccc(C#N)c1 [T6302141, CN(C1CCCCCC1)S(=O)(=O)C1=CC(=CC=C1)C#N]
IC50 [6]: 2.24 µM

O=S(=O)(c1ccc(CSc2ncnc3scc(-c4ccc(F)cc4)c23)o1)N1CCCC1 [T6366633, FC1=CC=C(C=C1)C1=CSC2=C1C(SCC1=CC=C(O1)S(=O)(=O)N1CCCC1)=NC=N2]
IC50 [6]: 1.67 µM

COc1ccc(NS(=O)(=O)c2cccc(C(=O)NCC(c3ccc(OC)cc3)N3CCCCC3)c2)cc1 (centres unmarked) [T6213020, COC1=CC=C(NS(=O)(=O)C2=CC(=CC=C2)C(=O)NCC(N2CCCCC2)C2=CC=C(OC)C=C2)C=C1]
IC50 [6]: 2.79 µM

Cc1nnc(C(=O)NC(C)(C)c2nc(C(=O)NCc3ccc(F)cc3)c(O)c(=O)n2C)o1 [Raltegravir, reference compound]
pIC50 ([6]; Human immunodeficiency virus 1, read-out: IC50s during a 6-month period): 8.10 to 8.68

Clc1cccc(Nc2nc(CN3CCOCC3)nc3scc(-c4ccccc4)c23)c1 [T5363639, ClC1=CC(NC2=C3C(SC=C3C3=CC=CC=C3)=NC(CN3CCOCC3)=N2)=CC=C1]
IC50 [6]: 2 µM

O=C(Cc1csc(-c2ccccn2)n1)N=c1sccn1Cc1ccccc1 [T6357587, O=C(CC1=CSC(=N1)C1=NC=CC=C1)N=C1SC=CN1CC1=CC=CC=C1]
IC50 [6]: 8.3 µM

CCC(C)c1ccc(S(=O)(=O)Nc2ccc(F)cc2C)cc1 (centres unmarked) [T5989159, CCC(C)C1=CC=C(C=C1)S(=O)(=O)NC1=C(C)C=C(F)C=C1]
IC50 [6]: 1.67 µM

N#Cc1ccccc1S(=O)(=O)N1CCC(CCc2ccccc2)CC1 [T5952497, O=S(=O)(N1CCC(CCC2=CC=CC=C2)CC1)C1=C(C=CC=C1)C#N]
IC50 [6]: 4.27 µM

Cc1nc(SCC(=O)NCCC(C)C)c(C#N)c(C)c1C [T5989363, CC(C)CCNC(=O)CSC1=C(C#N)C(C)=C(C)C(C)=N1]
IC50 [6]: 7.91 µM

O=C(COc1ccccc1-c1ccccc1)NCc1ccccc1Cn1cccn1 [T5945790, O=C(COC1=C(C=CC=C1)C1=CC=CC=C1)NCC1=C(CN2C=CC=N2)C=CC=C1]
IC50 [6]: 6.78 µM

CC(=O)c1ccc(NC(=O)CNc2ccccc2-c2ccccc2)cc1 [T5941648, CC(=O)C1=CC=C(NC(=O)CNC2=C(C=CC=C2)C2=CC=CC=C2)C=C1]
IC50 [6]: 7.85 µM

O=C(Nc1ccccc1N1CCCCC1)c1cc(S(=O)(=O)N2CCOCC2)ccc1Cl [T6098586, ClC1=C(C=C(C=C1)S(=O)(=O)N1CCOCC1)C(=O)NC1=C(C=CC=C1)N1CCCCC1]
Concentration beyond which the compound is toxic (viability drops below 80%) [7]: > 2000 nM
IC50 [6]: 1.78 µM

Cc1ccc(F)c(NC(=O)c2ccc(OC(F)F)cc2)c1 [T5506295, CC1=CC(NC(=O)C2=CC=C(OC(F)F)C=C2)=C(F)C=C1]
IC50 [6]: 1.77 µM

COc1ccc(OC)c(C2CCCN2C(=O)C2CC(=O)N(c3ccccc3)C2)c1 (centres unmarked) [T6517641, COC1=CC(C2CCCN2C(=O)C2CN(C(=O)C2)C2=CC=CC=C2)=C(OC)C=C1]
IC50 [6]: 6.83 µM

CC(=O)OCC(CCn1cnc2cnc(N)nc21)COC(C)=O [Famciclovir]
inhibition at 1 µM [1, 8]: 100%
inhibition at 1 µM [2, 9]: 100%
viability at 1 µM [3]: 7%

COC(=O)c1ccc(C(=O)Nc2ncc(C)s2)cc1 [T5650116, COC(=O)C1=CC=C(C=C1)C(=O)NC1=NC=C(C)S1]
IC50 [6]: 2.79 µM

CCNC1=NN=C(c2cc(C)n(C3CC3)c2C)CS1 [T5633521, CCNC1=NN=C(CS1)C1=C(C)N(C2CC2)C(C)=C1]
IC50 [6]: 1.05 µM

Cc1nc(SCC(=O)NC(C)c2cccs2)c(C#N)c(C)c1C (centres unmarked) [T5788505, CC(NC(=O)CSC1=C(C#N)C(C)=C(C)C(C)=N1)C1=CC=CS1]
IC50 [6]: 1.99 µM

Cc1oc(-c2ccccc2)nc1CN1CC(C(=O)N2CCCCC2)Oc2ccccc21 (centres unmarked) [T6329376, CC1=C(CN2CC(OC3=C2C=CC=C3)C(=O)N2CCCCC2)N=C(O1)C1=CC=CC=C1]
IC50 [6]: 4.83 µM

O=C(Nc1ccccc1N1CCCC1)c1cc(S(=O)(=O)N2CCOCC2)ccc1Cl [T6137813, ClC1=C(C=C(C=C1)S(=O)(=O)N1CCOCC1)C(=O)NC1=C(C=CC=C1)N1CCCC1]
IC50 [6]: 5.04 µM

O=C(Nc1ccccc1-n1cccn1)c1ccccc1Br [T6468172, BrC1=C(C=CC=C1)C(=O)NC1=C(C=CC=C1)N1C=CC=N1]
IC50 [6]: 1.04 µM
